Results: patent publication EP4603506A1, “NOVEL GLP-1 RECEPTOR ANTAGONIST, AND PHARMACEUTICAL COMPOSITION FOR PREVENTING OR TREATING CONGENITAL […] OR HYPOGLYCEMIA, COMPRISING SAME” (Hanmi Pharm. Co., Ltd., priority 2022, dated 2024)
Residues, ends and D or L forms follow the SMILES beside them.

Biological target: human GLP-1R (hGLP-1R) (Homo sapiens, UniProt P43220)
Assay: In vitro cell activity: cAMP inhibition (LANCE Ultra cAMP kit) in CHO cells expressing human GLP-1R, with GLP-1 added
Assay type: cell-based
Conditions: relative activity from IC50 of cAMP inhibition; 0.1 nM GLP-1 added; comparative substance exendin-3 (9-39) amide = 100
Protocol: The human GLP-1R-expressed CHO cells were cultured in a 384-well plate for 24 hours. Thereafter, the culture was removed, and 10 µL of each serially diluted substance was added to the plate, followed by incubation at room temperature for 30 minutes. Then, 5 µL of Eu-cAMP tracer was added, and then 5 µL of a buffer containing cAMP antibodies was added, followed by incubation at room temperature for 60 minutes. […]

Sequence of human GLP-1R (hGLP-1R) (P43220 24-463): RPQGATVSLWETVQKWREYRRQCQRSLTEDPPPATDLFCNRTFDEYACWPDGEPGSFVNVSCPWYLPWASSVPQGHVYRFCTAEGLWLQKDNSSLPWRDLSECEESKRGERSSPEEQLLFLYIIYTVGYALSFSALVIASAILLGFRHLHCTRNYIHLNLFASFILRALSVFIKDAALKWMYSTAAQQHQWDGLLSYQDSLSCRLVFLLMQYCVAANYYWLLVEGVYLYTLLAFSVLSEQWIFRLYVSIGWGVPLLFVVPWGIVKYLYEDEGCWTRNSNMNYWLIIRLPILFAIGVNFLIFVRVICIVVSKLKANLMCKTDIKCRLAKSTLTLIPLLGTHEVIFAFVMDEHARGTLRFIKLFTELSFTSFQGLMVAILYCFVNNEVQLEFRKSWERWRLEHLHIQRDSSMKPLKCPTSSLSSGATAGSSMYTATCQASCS

SMILES	In vitro activity compared with comparative substance (%)
CC[C@H](C)[C@H](NC(=O)[C@H](Cc1ccccc1)NC(=O)[C@H](CC(C)C)NC(=O)[C@H](CCCNC(=N)N)NC(=O)[C@@H](NC(=O)[C@H](C)NC(=O)[C@H](CCC(=O)O)NC(=O)[C@H](CCC(=O)O)NC(=O)[C@H](CCC(=O)O)NC(=O)[C@H](CC(C)C)NC(=O)[C@H](Cc1ccc(O)cc1)NC(=O)[C@H](CO)NC(=O)[C@H](CO)NC(=O)[C@@H](NC(=O)[C@H](CC(=O)O)NC(C)=O)C(C)C)C(C)C)C(=O)N[C@@H](C)C(=O)N[C@@H](Cc1c[nH]c2ccccc12)C(=O)N[C@@H](CC(C)C)C(=O)N[C@H](C(=O)N[C@@H](CCCCN)C(=O)NCC(=O)NCC(=O)N1CCC[C@H]1C(=O)N[C@@H](CO)C(=O)N[C@@H](CO)C(=O)NCC(=O)N[C@@H](C)C(=O)N1CCC[C@H]1C(=O)N1CCC[C@H]1C(=O)N1CCC[C@H]1C(=O)N[C@@H](CO)C(=O)N[C@@H](CS)C(N)=O)C(C)C [SEQ ID NO: 12] (Ac-DVSSYLEEEAVRLFIAWLVKGGPSSGAPPPSC-NH2)	189.3
CC[C@H](C)[C@H](NC(=O)[C@H](Cc1ccccc1)NC(=O)[C@H](CC(C)C)NC(=O)[C@H](CCCNC(=N)N)NC(=O)[C@H](C)NC(=O)[C@H](C)NC(=O)[C@H](CCC(=O)O)NC(=O)[C@H](CCC(=O)O)NC(=O)[C@H](CCC(=O)O)NC(=O)[C@H](CC(C)C)NC(=O)[C@H](Cc1ccc(O)cc1)NC(=O)[C@H](CO)NC(=O)[C@H](CO)NC(=O)[C@H](CC(C)C)NC(=O)[C@H](CC(=O)O)NC(C)=O)C(=O)N[C@@H](CCC(=O)O)C(=O)N[C@@H](Cc1c[nH]c2ccccc12)C(=O)N[C@@H](CC(C)C)C(=O)N[C@@H](CCCCNC(=O)COCCOCCNC(=O)COCCOCCNC(=O)CC[C@H](NC(=O)CCCCCCCCCCCCCCCCC(=O)O)C(=O)O)C(=O)N[C@@H](CC(N)=O)C(=O)NCC(=O)NCC(=O)N1CCC[C@H]1C(=O)N[C@@H](CO)C(=O)N[C@@H](CO)C(=O)NCC(=O)N[C@@H](C)C(=O)N1CCC[C@H]1C(=O)N1CCC[C@H]1C(=O)N1CCC[C@H]1C(=O)N[C@@H](CO)C(N)=O [SEQ ID NO: 14]	1.7
CC[C@H](C)[C@H](NC(=O)[C@H](Cc1ccccc1)NC(=O)[C@H](CC(C)C)NC(=O)[C@H](CCCNC(=N)N)NC(=O)[C@@H](NC(=O)[C@H](C)NC(=O)[C@H](CCC(=O)O)NC(=O)[C@H](CCC(=O)O)NC(=O)[C@H](CCC(=O)O)NC(=O)[C@H](CC(C)C)NC(=O)[C@H](Cc1ccc(O)cc1)NC(=O)[C@H](CO)NC(=O)[C@H](CO)NC(=O)[C@@H](NC(=O)[C@H](CC(=O)O)NC(C)=O)C(C)C)C(C)C)C(=O)N[C@@H](C)C(=O)N[C@@H](Cc1c[nH]c2ccccc12)C(=O)N[C@@H](CC(C)C)C(=O)N[C@H](C(=O)N[C@@H](CCCCNC(=O)COCCOCCNC(=O)COCCOCCNC(=O)CC[C@H](NC(=O)CCCCCCCCCCCCCCCCC(=O)O)C(=O)O)C(=O)NCC(=O)NCC(=O)N1CCC[C@H]1C(=O)N[C@@H](CO)C(=O)N[C@@H](CO)C(=O)NCC(=O)N[C@@H](C)C(=O)N1CCC[C@H]1C(=O)N1CCC[C@H]1C(=O)N1CCC[C@H]1C(=O)N[C@@H](CO)C(N)=O)C(C)C [SEQ ID NO: 15]	14.3
CC[C@H](C)[C@H](NC(=O)[C@H](Cc1ccccc1)NC(=O)[C@H](CC(C)C)NC(=O)[C@H](CCCNC(=N)N)NC(=O)[C@H](C)NC(=O)[C@H](C)NC(=O)[C@H](CCC(=O)O)NC(=O)[C@H](CCC(=O)O)NC(=O)[C@H](CCC(=O)O)NC(=O)[C@H](CC(C)C)NC(=O)[C@H](Cc1ccc(O)cc1)NC(=O)[C@H](CO)NC(=O)[C@H](CO)NC(=O)[C@@H](NC(=O)[C@H](CC(=O)O)NC(C)=O)C(C)C)C(=O)N[C@@H](C)C(=O)N[C@@H](Cc1c[nH]c2ccccc12)C(=O)N[C@@H](CC(C)C)C(=O)N[C@H](C(=O)N[C@@H](CCCCNC(=O)COCCOCCNC(=O)COCCOCCNC(=O)CC[C@H](NC(=O)CCCCCCCCCCCCCCCCC(=O)O)C(=O)O)C(=O)NCC(=O)NCC(=O)N1CCC[C@H]1C(=O)N[C@@H](CO)C(=O)N[C@@H](CO)C(=O)NCC(=O)N[C@@H](C)C(=O)N1CCC[C@H]1C(=O)N1CCC[C@H]1C(=O)N1CCC[C@H]1C(=O)N[C@@H](CO)C(N)=O)C(C)C [SEQ ID NO: 16]	13.5
